# Reference: a melting point compilation (Tetko et al.; mined from patent text by program, amines drawn as free bases though some values may be those of a salt)
row,SMILES,melting point [°C]
1,COc1ccccc1-n1c(=O)[nH]c2c(C(N)=O)nc(-c3cccc4[nH]cnc34)nc21,312
2,CCCC[C@H](NC(=O)[C@H](CC(C)C)NC(=O)COc1ccc(OC)cc1)C(=O)CSCc1ccco1,86 to 88
3,Cc1cc(C(=O)N2Cc3cccn3Cc3ccccc32)ccc1C1=CCC2CC1C2(C)C (stereo unspecified),139 to 140
4,Cc1ccnc(-c2cccc(Br)n2)n1,127
5,CCOP(=O)(OCC)C(O)c1cccc(F)c1 (stereo unspecified),81 to 82
6,Cn1c(C(F)(F)F)ccc(-c2cc([N+](=O)[O-])c(Cl)cc2F)c1=O,139 to 140
7,C#Cc1ccc2c(c1)Cc1cc(C#C)ccc1-2,125
8,CCOC(=O)c1sc(Cl)nc1-c1ccc([N+](=O)[O-])cc1,146 to 148
9,Clc1ccc2nc(CN3CCC(c4ccccc4)CC3)cn2c1,132 to 133
10,CC1(C)[C@@H](CN2CCCS2(=O)=O)CC[C@@]1(C)NCC(=O)N1C[C@@H](F)C[C@H]1C#N,126 to 128
11,c1ccc(C(OC2CCN(c3ccc4ncnn4n3)CC2)c2ccccc2)cc1,137 to 139
12,CN(C)c1ccc(C(=O)N[C@H](Cc2ccc(C(F)(F)F)cc2)[C@@H](O)c2ccc(F)cc2)c2ccccc12 (racemic),169 to 170
13,CC(C)=CCCC(C)C1CCC2C3CCC4CC(O)CCC4(C)C3CCC12C (stereo unspecified),117 to 118
14,COc1ccc(/C(=C\C=C\C(=O)Oc2ccc([N+](=O)[O-])cc2)c2ccccc2OC)cc1,134 to 135
15,CC(C)(C)c1cc(CCc2ccccc2NC(=O)NC2CCN(Cc3ccc(C#N)cc3)CC2)cc(C(C)(C)C)c1O,197 to 198
16,COC(=O)C1(CCN(C)C)c2ccccc2N(C)c2ccc(Cl)cc21 (stereo unspecified),106
17,O=c1c(CCCc2ccccn2)cc2cccnc2n1-c1ccc2nsnc2c1,170
18,CCC(CO)Nc1ccc(Cl)cc1[N+](=O)[O-] (stereo unspecified),45
19,CC(C)=CCSC1=C(O)CC(C)(C)CC1=O,50.5 to 52
20,COc1cc(CCCCCCCO)ccc1OCc1nc(-c2ccccc2)oc1C,78 to 79
21,CCOC(=O)Cn1nc2ccc(NCCCN3CCC(OC(c4ccccc4)c4ccccc4)CC3)nn2c1=O,137 to 139
22,CCc1ccc2c(c1)C=Cc1cc(C)ccc1C2c1cn(-c2nccc(C(=O)NCC(=O)O)n2)c(=O)[nH]c1=O (stereo unspecified),195 to 198
23,CN(C)CCOc1ccc2c(=O)c3ccc(OCCN(C)C)cc3oc2c1,87.5 to 89
24,CC(C(=O)NCCN(C)C)n1cc(-c2ccc(Oc3ccccc3)cc2)c2c(N)ncnc21 (stereo unspecified),163 to 164

row,SMILES,melting point [°C]
1,COc1ccc2nc(NC(=O)C(CC3CCCC3)c3ccc(S(=O)(=O)N4CCOCC4)cc3)sc2n1 (stereo unspecified),120 to 123
2,Cn1c(=O)cc(CN2CCC(c3c[nH]c4ccccc34)CC2)c2ccccc21,228 to 229
3,Cc1nnc(Sc2c(C)cccc2C)o1,53 to 54
4,CC(C)(C)OC(=O)NCCNC(=O)c1noc(N)c1-c1ccccc1,144
5,CCCCc1ccc(N2CCC(CCOc3ccc(C(=O)OCC)cc3)CC2)nn1,91.4
6,CC(=O)Nc1c(C(C)=O)[nH]c2cc(Cl)ccc12,262 to 267
7,CC(CO)COc1ccc(C#Cc2ccc(C(=O)O)cc2)cc1C12CC3CC(CC(C3)C1)C2 (stereo unspecified),260 to 262
8,CCC(=O)Oc1ccc(N=c2scc(-c3ccc(Cl)c(S(=O)(=O)N(C)C)c3)n2C)cc1,155 to 159
9,COc1ccc(-c2cccc(Cn3cncn3)c2)cc1Cl,78.2 to 78.4
10,Cc1cccc(-c2n[nH]cc2-c2ccc(F)c(-c3cnc(C(C)(C)O)s3)c2)n1,208 to 210
11,O=[N+]([O-])c1nccn1CC(O)CC1C2CCCN21 (stereo unspecified),81 to 81.5
12,CC1(c2ccc(O)cc2)C(=O)Nc2cc(Cl)cc(Cl)c2C1=O (stereo unspecified),222 to 223
13,CC(=O)OC[C@H]1OCC(=NO)[C@@H](OC(C)=O)[C@@H]1OC(C)=O,90 to 92
14,OCc1ccc(O)c(CO)c1CNCCCCCCOCCc1ccco1,91 to 93
15,Cc1nn(C)c(F)c1C(=O)Nc1ccccc1C(C)C(O)C(C)C (stereo unspecified),118
16,CN1C(=O)C(C(=O)Nc2ccc(Oc3nnc(C(C)(C)C)o3)cc2)C(=O)N(C)C1=O,200 to 203
17,O=C(N[C@H](Cc1cccc(OC(F)(F)C(F)F)c1)[C@@H](O)c1ccc(F)nc1)c1ccc(F)c2ccccc12 (racemic),148 to 149
18,O=c1ccoc2c1ccc1ncccc12,146 to 147
19,CONS(=O)(=O)c1ccccc1S(=O)(=O)NC(=O)Nc1nc(C)cc(C)n1,218 to 219
20,CCOC(=O)N(c1ccccc1)c1cc(Cl)ccc1N,98 to 101
21,C=CCOc1ccccc1OCC(O)CNC(C)C (stereo unspecified),76 to 79
22,COc1ccc(N2CN(C)CNC2=S)cc1,194
23,Cc1nc[nH]c1CSCCNC(=C[N+](=O)[O-])NN,142
24,c1ccc(CNc2c(-c3ccccc3)sc3ccccc23)cc1,52 to 53

row,SMILES,melting point [°C]
1,CCOC(=O)c1csc(NC(=O)c2cc(OC)c(OC)cc2O)n1,218 to 220
2,COC(=O)c1ccc(NC(C)=O)c(NC(=O)C(COC(C)=O)OC(C)=O)c1 (stereo unspecified),130 to 134
3,CCCn1nc(O)c2cc(Cl)c(Cl)cc2c1=O,223
4,CC(NC(=O)c1ccc(NC(=O)c2ccccc2SSc2ccccc2C(=O)Nc2ccc(C(=O)NC(C)C(=O)O)cc2)cc1)C(=O)O (stereo unspecified),265
5,COc1cc(F)nc(N)n1,171 to 173
6,O=c1[nH]nc2ccc(NCCCN3CCC(OC(c4ccccc4)c4ccccc4)CC3)nn12,156 to 170
7,CC(C)n1c(NC(=O)c2ccccc2)nc2ccccc2c1=O,156 to 158
8,O=C(NC(CCc1ccccc1)c1nnco1)c1ccc2[nH]c(-c3ccncc3)nc2c1 (stereo unspecified),103
9,COc1ccc(S(=O)(=O)n2c(CCCC(=O)O)cc3nc(Cl)ccc32)cc1,189
10,O=[N+]([O-])c1cccc(CO)c1I,91 to 91.5
11,COc1ccc(OC)c(C=CC(=O)C=Cc2cc(OC)ccc2OC)c1,103 to 104
12,COc1cc2ncnc(NC3=CC(=O)C4(c5ccccc5)OC4C3=O)c2cc1OC (stereo unspecified),252 to 253
13,OCC1OC(n2c(Cl)nc3c(NCc4ccccc4)ncnc32)C(O)C1O (stereo unspecified),90 to 92
14,Cc1ccc(C=O)c(OCc2ccc(OCc3nc(-c4ccccc4)oc3C)cc2)n1,114 to 115
15,CCOc1ccc(NS(=O)(=O)c2cccc3c(N(C)C)cccc23)nn1,194 to 198
16,CCCCCCCc1ccc(C(=O)Cc2cccc(C#N)c2)cc1,68
17,Cc1cc(C)cc(OCC(O)CNc2nc(-c3ccccc3)nc3ccccc23)c1 (stereo unspecified),170 to 172
18,Cn1c(=O)n(Cc2cccs2)c(=O)c2cc(C(=O)NCc3ccc4c(c3)OCO4)ccc21,224
19,CC(=O)N1CCc2cc(CC(C)NCCOc3ccccc3OCC(F)(F)F)cc(C#N)c21 (stereo unspecified),57 to 59
20,Nc1ccnc(-c2nnn(Cc3cc(C(F)(F)F)cc(C(F)(F)F)c3)c2-c2ccccc2)c1C(=O)c1ccccc1Cl,156
21,CCOC(=O)CC(=O)Nc1ccc(F)cc1,68 to 71
22,COC(=O)Cc1c(C)ncnc1Oc1cccc(-c2ccccc2)c1,113 to 115
23,c1ccc(N(c2ccccc2)c2ccc3c4c(cccc24)CC3)cc1,168 to 170
24,NS(=O)(=O)c1cc(C(=O)O)cc(CCn2cccc2)c1Cl,224 to 228

row,SMILES,melting point [°C]
1,Cc1cc(C#N)cc(C(=O)Nc2ccc(F)cn2)n1,204
2,C=Cc1c(NCc2ccco2)nc(C2CC2)nc1C(=O)OC,85 to 86
3,CSc1ccc2ccc3c(SC)cc(SC)c4ccc1c2c34,235 to 240
4,CCOC(=O)C(Cc1cccc(OCC(F)(F)C(F)F)c1)C(=O)c1ccc(F)cc1 (stereo unspecified),55 to 56
5,O=C(O)c1cn(Cc2csnn2)c2cc(F)c(F)cc2c1=O,257 to 261
6,CC(C)(CCc1ccccc1)NCC(O)c1ccc(O)c(C(N)=O)c1 (stereo unspecified),154
7,CC(=O)Nc1c(C#N)cnn1-c1c(F)c(F)c(C(F)(F)F)c(F)c1F,153 to 154
8,COc1ccc(C[C@@H](CO)NC(=O)c2ccnc(Br)c2)cc1OC,151 to 153
9,COc1ccccc1-n1cnc2c(C(N)=O)nc(-c3ccccc3O)nc21,278 to 280
10,COc1ccc(/C=C/c2nc3ccccc3c(=O)o2)cc1OC,175 to 179
11,CCCn1cc(C(=O)Nc2nccs2)c2ccc(Cl)cc21,175 to 176
12,Cc1oc(-c2ccccc2)nc1CCCc1ccc(CC(C(=O)O)c2cccnc2)cc1 (stereo unspecified),112 to 114
13,COc1ccc(-c2cc(C(=O)NCCCCCCCCc3ccccc3)cc(-c3cccc(C(F)(F)F)c3)c2OCC(=O)O)cc1,139 to 144
14,CCCCCCCCCCCCCC(=O)Nc1ccc(Cl)c(NC2=NN(c3c(Cl)cc(Cl)cc3Cl)C(=O)C2SCCc2ccccc2)c1 (stereo unspecified),161 to 162
15,CC(C)(C)OC(=O)N1CCC[C@@H](OC(=O)Nc2ccc(Cl)cc2)C1,160 to 161
16,O=C(O)CC1(CNC(=O)OC(OC(=O)c2ccccc2)c2ccccc2)CCCCC1 (stereo unspecified),75.5 to 76
17,Cc1ccccc1C(=O)Oc1cc(O)ccn1,116 to 119
18,O=C(CCl)NCC(O)(c1ccccc1)c1ccccc1,178 to 180
19,CCOC(=O)C(=O)Nc1cc2c3c(cccc3c1)C(=O)OC2=O,275 to 276
20,COc1ccc(-c2nc(C)nn2-c2ccccc2S(N)(=O)=O)cc1OC,176 to 178
21,O=C(N[C@@H](Cc1ccc(C(F)(F)F)cc1)[C@H](O)c1ccncc1)c1ccc(F)c2ccccc12,239 to 243
22,O=C1Nc2ccccc2C1c1cc(Cl)ccc1O (stereo unspecified),256 to 258
23,COc1c(N2CC(C)C(NC3CC3)C(C)C2)c(F)cc2c(=O)c(C(=O)O)cn(C3CC3)c12 (stereo unspecified),240 to 242
24,CNC1(c2ccccc2)CCN(C(c2ccccc2)(c2ccccc2)c2ccccc2)CC1,125
